What follows are compounds tested against Prolyl endopeptidase (Sus scrofa, UniProt P23687) (assay: In vitro inhibitory activity against porcine prolyl oligopeptidase by using 4 mM Suc-Gly-Pro-7-amido-4-methylcoumarin as substrate (pH 7.0) at 30 degree C for 60 min).
Sequence of Prolyl endopeptidase (P23687 whole entry): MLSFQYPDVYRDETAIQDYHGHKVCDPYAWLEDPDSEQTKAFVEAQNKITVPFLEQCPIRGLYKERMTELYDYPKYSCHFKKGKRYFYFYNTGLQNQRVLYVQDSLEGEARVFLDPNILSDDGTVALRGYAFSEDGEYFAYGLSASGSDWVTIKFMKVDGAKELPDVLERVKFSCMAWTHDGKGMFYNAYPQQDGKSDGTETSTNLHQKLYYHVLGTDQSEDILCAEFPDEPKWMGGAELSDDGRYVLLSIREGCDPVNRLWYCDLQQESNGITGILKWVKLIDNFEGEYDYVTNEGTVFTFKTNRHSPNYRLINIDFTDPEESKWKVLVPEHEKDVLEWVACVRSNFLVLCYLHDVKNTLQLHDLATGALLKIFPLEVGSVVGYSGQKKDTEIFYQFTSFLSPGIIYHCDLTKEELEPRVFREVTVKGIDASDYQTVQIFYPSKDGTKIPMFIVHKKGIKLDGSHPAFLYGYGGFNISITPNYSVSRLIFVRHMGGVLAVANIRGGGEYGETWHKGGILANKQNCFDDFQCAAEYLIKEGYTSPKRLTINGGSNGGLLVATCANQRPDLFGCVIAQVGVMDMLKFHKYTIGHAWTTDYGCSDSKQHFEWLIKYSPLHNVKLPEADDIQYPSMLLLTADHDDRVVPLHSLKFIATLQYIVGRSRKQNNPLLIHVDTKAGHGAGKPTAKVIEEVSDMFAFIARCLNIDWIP

SMILES | IC50 [nM]
O=C(CCC(=O)N1CCC[C@H]1C(=O)N1CCCC1)N1CCCC1 | 110
N#C[C@@H]1CCCN1C(=O)[C@@H]1CCCN1C(=O)c1cccc(C(=O)N2CCCCCC2)c1 | 4.6
N#C[C@@H]1CCCN1C(=O)[C@@H]1CCCN1C(=O)CCCC(=O)N1CCCCCC1 | 1.2
CC(=O)[C@@H]1CCCN1C(=O)c1cccc(C(=O)N2CCC[C@H]2C(=O)N2CCC[C@H]2C(=O)CO)c1 | 1.2
N#C[C@@H]1CCCN1C(=O)[C@@H]1CCCN1C(=O)c1ccccc1C(=O)N1CCCC1 | 1500
O=C([C@@H]1CCCN1C(=O)CCCCC(=O)N1CCC[C@H]1C(=O)N1CCCC1)N1CCCC1 | 68
N#C[C@@H]1CCCN1C(=O)[C@@H]1CCCN1C(=O)c1cccc(C(=O)N2CCCC2)c1 | 6.9
N#C[C@@H]1CCCN1C(=O)[C@@H]1CCCN1C(=O)c1cccc(C(=O)N2CCC[C@H]2C(=O)C2CCCC2)c1 | 1.1
O=C(CO)[C@@H]1CCCN1C(=O)[C@@H]1CCCN1C(=O)CCCc1ccccc1 | 0.22
N#C[C@@H]1CCCN1C(=O)[C@@H]1CCCN1C(=O)CCC(=O)N1CCCC1 | 2.9
N#C[C@@H]1CCCN1C(=O)[C@@H]1CCCN1C(=O)c1ccccc1 | 3.1
O=C(CCC(=O)N1CCC[C@H]1C(=O)N1CCCC1)N1CCOCC1 | 1200
N#C[C@@H]1CCCN1C(=O)[C@@H]1CCCN1C(=O)c1cccc(C(=O)N2CCC[C@H]2C(=O)c2ccccc2)c1 | 1.3
CC(=O)[C@@H]1CCCN1C(=O)c1cccc(C(=O)N2CCC[C@H]2C(=O)N2CCCC2)c1 | 65
N#C[C@@H]1CCCN1C(=O)[C@@H]1CCCN1C(=O)c1ccc(C(=O)N2CCCC2)cc1 | 1.6
O=C([C@@H]1CCCN1C(=O)c1cccc(C(=O)N2CCC[C@H]2C(=O)N2CCNCC2)c1)N1CCCC1 | 33

Continued by falling IC50, values first:

IC50 [nM] | SMILES
19000 | O=C(c1ccccc1C(=O)N1CCC[C@H]1C(=O)N1CCCC1)N1CCCC1
170 | CC(C)(C)OC(=O)N1CCN(C(=O)[C@@H]2CCCN2C(=O)c2cccc(C(=O)N3CCC[C@H]3C(=O)N3CCCC3)c2)CC1
81 | O=C([C@@H]1CCCN1C(=O)c1ccc(C(=O)N2CCC[C@H]2C(=O)N2CCCC2)cc1)N1CCCC1
81 | O=C(N[C@@H](Cc1ccccc1)C(=O)N1CCCC1)c1cccc(C(=O)N[C@@H](Cc2ccccc2)C(=O)N2CCCC2)c1
77 | O=C([C@@H]1CCCN1C(=O)CCC(=O)N1CCC[C@H]1C(=O)N1CCCC1)N1CCCC1
41 | O=C(CCC(=O)N1CCC[C@H]1C(=O)N1CCCC1)N1CCCCCC1
31 | O=C(NCc1ccccc1)[C@@H]1CCCN1C(=O)c1cccc(C(=O)N2CCC[C@H]2C(=O)N2CCCC2)c1
23 | O=C([C@@H]1CCCN1C(=O)c1cccc(C(=O)N2CCC[C@H]2C(=O)N2CCCC2)c1)N1CCCCCC1
18 | O=C(c1ccccc1)[C@@H]1CCCN1C(=O)c1cccc(C(=O)N2CCC[C@H]2C(=O)N2CCCC2)c1
14 | O=C(C1CCCC1)[C@@H]1CCCN1C(=O)c1cccc(C(=O)N2CCC[C@H]2C(=O)N2CCCC2)c1
4.2 | CC(=O)[C@@H]1CCCN1C(=O)c1cccc(C(=O)N2CCC[C@H]2C(=O)N2CCC[C@H]2C#N)c1
1.6 | CC(C)C(=O)[C@@H]1CCCN1C(=O)c1cccc(C(=O)N2CCC[C@H]2C(=O)N2CCC[C@H]2C#N)c1
0.76 | N#C[C@@H]1CCCN1C(=O)[C@@H]1CCCN1C(=O)CCC(=O)N1CCCCCC1
0.72 | N#C[C@@H]1CCCN1C(=O)[C@@H]1CCCN1C(=O)c1cccc(C(=O)N2CCC[C@H]2C(=O)C2CCCCC2)c1
0.61 | O=C(CO)[C@@H]1CCCN1C(=O)[C@@H]1CCCN1C(=O)c1cccc(C(=O)N2CCC[C@H]2C(=O)C2CCCC2)c1
0.39 | CC(C)(CC(=O)N1CCCCCC1)CC(=O)N1CCC[C@H]1C(=O)N1CCC[C@H]1C#N

From ChEMBL document CHEMBL1140326, “Dicarboxylic acid azacycle l-prolyl-pyrrolidine amides as prolyl oligopeptidase inhibitors and three-dimensional quantitative structure-activity relationship of the enzyme-inhibitor interactions” (J Med Chem, 2005)
